Assay results: patent US10912294B2, “Composition for use as pesticide, fertilizer, or both, and uses thereof” (priority 2015, dated 2021)

Experiments:
Microsporum canis FF1 = conditions: E. pinto et al. 2006; cited from earlier work
[1] = test system: Aspergillus niger ATCC16404; conditions: E. pinto et al. 2006; cited from earlier work
[2] = test system: Pseudomonas aeruginosa ATCC2730; conditions: R. J. W. Lambert et al. 2001; cited from earlier work
[3] = test system: Candida tropicalis ATCC13803; conditions: E. pinto et al. 2006; cited from earlier work
[4] = test system: Staphylococcus epidermidis ATCC12228; conditions: A. Nostro et al. 2004; cited from earlier work
Microsporum gypseum FF3 = conditions: E. pinto et al. 2006; cited from earlier work
[5] = test system: Staphylococcus aureus (ATCC 6538); experiment: Minimum concentration for total bactericidal activity, AOAC method 955.15 (Phenol Coefficient Method); type: cell-based; conditions: total antimicrobial (bactericidal) activity; incorporated into composition F; contact time 10 minutes
[6] = test system: Candida albicans ATCC10231; conditions: E. pinto et al. 2006; cited from earlier work
[7] = test system: Epidermophyton floccosum FF9; conditions: E. pinto et al. 2006; cited from earlier work
[8] = test system: Trichophyton mentagrophytes FF7; conditions: E. pinto et al. 2006; cited from earlier work
[9] = test system: Staphylococcus aureus ATCC43300; conditions: A. Nostro et al. 2004; cited from earlier work
[10] = test system: Aspergillus fumigatus ATCC46645; conditions: E. pinto et al. 2006; cited from earlier work
[11] = test system: Staphylococcus aureus ATCC6538; conditions: R. J. W. Lambert et al. 2001; cited from earlier work
Trichophyton rubrum FF5 = conditions: E. pinto et al. 2006; cited from earlier work
E. coli ATCC 25922 = experiment: Sensitivity test on King B agar media; type: cell-based; conditions: streptomycin 100, 250 and 500 ppm; composition 12 at 1, 2.5 and 5%; up to 72 hours at 26° C.
[12] = test system: E. amylovora 433 (streptomycin-sensitive); experiment: Sensitivity test on King B agar media; type: cell-based, Erwinia amylovora; conditions: streptomycin 100, 250 and 500 ppm; composition 12 at 1, 2.5 and 5%; up to 72 hours at 26° C.
[13] = test system: E. amylovora 153sm5 (streptomycin-resistant); type: cell-based, Erwinia amylovora; conditions: streptomycin 100, 250 and 500 ppm; composition 12 at 1, 2.5 and 5%; up to 72 hours at 26° C.
[14] = test system: E. amylovora 435 (streptomycin-sensitive); experiment: Sensitivity test on King B agar media; type: cell-based, Erwinia amylovora; conditions: streptomycin 100, 250 and 500 ppm; composition 12 at 1, 2.5 and 5%; up to 72 hours at 26° C.
[15] = in vivo; cited from earlier work
[16] = test system: Treponema phagedaenis-like; conditions: D. Döpfer et al. 2013; cited from earlier work

Structure (SMILES): Cc1ccc(C(C)C)cc1O [Carvacrol]
- MIC (Microsporum canis FF1): 0.004 v/v %
- MIC [1]: 0.016 v/v %
- MIC [2]: 0.045 v/v %
- MIC [3]: 0.016 v/v %
- MIC [4]: 0.03 v/v %
- MIC (Microsporum gypseum FF3): 0.004 v/v %
- Minimal Concentration [5]: 0.07 v/v %
- MIC [6]: 0.016 v/v %
- MIC [7]: 0.008 v/v %
- MIC [8]: 0.004 v/v %
- MIC [9]: 0.015 v/v %
- MIC [10]: 0.016 v/v %
- MIC [11]: 0.0175 v/v %
- MIC (Trichophyton rubrum FF5): 0.008 v/v %

Structure (SMILES): [H]/N=C(/N)N[C@H]1[C@H](O)[C@@H](O)[C@H](O[C@@H]2O[C@@H](C)[C@](O)(C=O)[C@H]2O[C@@H]2O[C@@H](CO)[C@H](O)[C@@H](O)[C@@H]2NC)[C@@H](N/C(N)=N\[H])[C@@H]1O [streptomycin]
- Bacterial growth on King B agar media containing the agent (E. coli ATCC 25922): did not grow
- Bacterial growth on King B agar media containing the agent [12]: did not grow
- Bacterial growth on King B agar media containing the agent [13]: not inhibited
- Bacterial growth on King B agar media containing the agent [14]: did not grow

Structure (SMILES): COCC(C)O (stereo not shown) [Glycol Ether PM]
- LD50 Oral-rat [15]: 5 210 mg/kg

Structure (SMILES): CC(C)=CCCC(C)=CC=O [Citral]
- Minimal Concentration [5]: >1% v/v %

Structure (SMILES): CCCCCCCCCCCCOS(=O)(=O)[O-].[Na+] [Sodium Lauryl Sulfate]
- LD50 Oral-rat [15]: 1288 mg/kg

Structure (SMILES): C=CCc1ccc(O)c(OC)c1 [Eugenol]
- Minimal Concentration [5]: 0.4 v/v %

Structure (SMILES): Cc1ccc(C(C)C)c(O)c1 [Thymol]
- MIC (Microsporum canis FF1): 0.008 v/v %
- MIC [1]: 0.016 v/v %
- MIC [2]: 0.0385 v/v %
- MIC [3]: 0.016 v/v %
- MIC [4]: 0.06 v/v %
- MIC (Microsporum gypseum FF3): 0.016 v/v %
- MIC [16]: 0.0006 v/v %
- Minimal Concentration [5]: 0.07 v/v %
- MIC [6]: 0.016 v/v %
- MIC [7]: 0.016 v/v %
- MIC [8]: 0.016 v/v %
- MIC [9]: 0.06 v/v %
- MIC [10]: 0.016 v/v %
- MIC [11]: 0.014 v/v %
- MIC (Trichophyton rubrum FF5): 0.016 v/v %
